# Experimental data from article PMC12603070, “A high-throughput screening approach to discover potential colorectal cancer chemotherapeutics: repurposing drugs to identify novel disruptors of 14-3-3 proteins” (Cell Death & Disease, 2025).
# pKd: −log10 of the molar value. Like-named read-outs stand apart in the source and are kept apart here.
# What was measured:
# [1] = biological target: T1, His-14-3-3ζ (Homo sapiens, UniProt P63104); experiment: Surface plasmon resonance (SPR) on immobilized His-14-3-3ζ; type: binding
# T1 construct: made in house; host or cells: Escherichia coli BL21 LOBSTR-RIL
# T1 sequence (P63104 1-245): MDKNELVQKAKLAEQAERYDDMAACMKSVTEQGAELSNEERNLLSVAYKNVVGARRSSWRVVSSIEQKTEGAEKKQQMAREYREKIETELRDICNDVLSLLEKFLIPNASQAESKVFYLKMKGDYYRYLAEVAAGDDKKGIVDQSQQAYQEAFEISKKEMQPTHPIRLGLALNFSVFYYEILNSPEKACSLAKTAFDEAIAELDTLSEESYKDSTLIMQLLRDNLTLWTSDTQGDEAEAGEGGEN
# Description: The published protocol of Higuchi & Ottmann as followed with modifications to express 14-3-3ζ [44]. Escherichia coli BL21 LOBSTR-RIL cells were transformed with a plasmid encoding His-14-3-3ζ. The transformed cells were grown in TB medium containing appropriate antibiotic at 37 °C with shaking at 200 rpm until the culture reached an optical density of 0.6–0.8 at 600 nm (OD600). Protein expression was induced by the addition of isopropyl β-D-1-thiogalactopyranoside to a final concentration of 0.4 mM. Subsequently, the temperature was decreased to 16 °C and the culture incubated for another 16 h. Cells were harvested by centrifugation at 7000 × g for 20 min at 21 °C. The supernatant was discarded, and the cell pellet containing 14-3-3ζ was mixed and resuspended in lysis buffer (50 mM Tris, pH 7.80), 500 mM NaCl, 5 mM imidazole, 5% glycerol, 1 mM PMSF & 1 mM Benzamidine. Cells were lysed by sonication on ice using a probe sonicator (20 cycles of 10 s on, 20 s off, amplitude 70%). The lysate was centrifuged at 30,000 × g for 30 min at 4 °C to remove cell debris. The supernatant was collected for further purification. The 14-3-3ζ was isolated from the lysate by affinity chromatography (Ni-NTA beads, Qiagen). For further purification, the eluant was subjected to size exclusion chromatography using a Superdex 75 gel filtration column (HiLoad 16/600, GE Healthcare), pre-equilibrated with SEC buffer (20 mM Tris, pH 7.5, 150 mM NaCl, 1 mM TCEP). The protein solution was concentrated by ultrafiltration, flash frozen, and stored at −80 °C.
# The general protocol for evaluating 14-3-3ζ was adapted from Hartman et al. and modified for our instrument and sensors. The SPR experiments were performed using a Open surface plasmon resonance instrument (OpenSPR^TM, Nicoya, Kitchener-Waterloo, Canada), and high sensitivity-nitrilotriacetic acid (HS-NTA) sensors. The sensor chip surface was first activated with 40 mM of NiCl2 at a flow rate of 20 μL/min using 20 mM HEPES pH 7.8, 150 mM NaCl and 1% DMSO as the running buffer. All running buffers were filtered and degassed prior to use. 100 μg/mL His-14-3-3ζ protein in 20 mM HEPES pH 7.8, 150 mM NaCl and 1% DMSO was injected at 8 μL/min flow rate for 800 s contact time and immobilized until the instrument registered 2900–3500 RU (activation and protein immobalization spectrograms are provided as Supplementary Fig. 10). Drugs were dissolved in DMSO and were diluted with 20 mM HEPES pH 7.8, 150 mM NaCl (final DMSO concentration of 1% v/v) and were injected at a flow rate of 50 μL/min. Single-cycle kinetics were applied for KD evaluation and binding affinity using TraceDrawer v.1.8.1 (Ridgeview Instruments AB).
# [2] = biological target: T2, 14-3-3ζ (Homo sapiens, UniProt P63104); experiment: Isothermal titration calorimetry (ITC) with purified 14-3-3ζ; type: binding; conditions: 750-1,000 μM ligand, 70 μM protein, 1-4% DMSO
# T2 construct: made in house; host or cells: Escherichia coli BL21 LOBSTR-RIL
# T2 sequence (P63104 1-245): T1 sequence (P63104 1-245)
# Description: application to isothermal titration calorimetry (ITC) studies.
# ITC experiments were performed, but the solubility incompatibility gave unclear data, with a […]
# All ITC experiments were conducted at 750-1,000 μM of the ligand (in the syringe: titrant), with 70 μM of protein in the cell: titrand); each injection introduced approximately 4 nmol of ligand. All experiments were conducted at 1 -4% DMSO based on drug’s solubility. […]
# [3] = biological target: T3, 14-3-3ζ:BAD-112-136F interactions (Homo sapiens, UniProt P63104); experiment: BRET sensor screen for disruption of 14-3-3ζ-Rluc8:BAD-112-136F-mCitrine in living NIH-3T3 cells; type: cell-based, murine; parameters: inhibition: dose or concentration left out as unconfirmed; conditions: for inhibition at 20 µM / inhibition: NIH3T3, 3 h, read-out: BRET reduction on NIH-3T3
# T3 construct: expressed in transfected cells; host or cells: NIH-3T3 fibroblasts, bi-directional pBI-CMV1 plasmid
# T3 sequence (P63104 1-245): T1 sequence (P63104 1-245)
# Outline: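 NIH-3T3 cells were transfected with the BRET sensor two days beforehand, then replated on poly-L-ornithine-coated plates and grown 24 h at 37 °C. Medium was then replaced with Krebs buffer (pH 7.4). Z′-score was calculated to judge HTS robustness.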
# [4] = tested on: NIH-3T3 cells; experiment: Hoechst/propidium iodide cell death assay in NIH-3T3; type: cell-based; conditions: for cytotoxicity at 20 µM: Mus musculus, NIH3T3, 24 h, read-out: Percentage of cell death % 24h NIH3t3
# Source text: (§1) A high-content imaging system (PerkinElmer; Operetta CLS), was used to quantify cell death and apoptosis by calculating the number of propidium iodide-positive cells relative to Hoechst-positive cells, and the number of Annexin V-positive cells relative to Hoechst-positive cells, respectively.
# [5] = tested on: HT-29 cells; experiment: Hoechst/propidium iodide cell death assay in HT-29; type: cell-based, human; conditions: for %Cell death HT-29: time not given; for cytotoxicity at 20 µM: Homo sapiens
# Source text: as §1
# [6] = tested on: Caco-2 cells; type: cell-based; conditions: for Percentage of cell death % 24h CACO-2: 20 µM; for Percentage of cell death % 48h, Caco-2: 20 μM
# Source text: as §1
# [7] = NIH-3T3 cells, hits from the primary screen
# [8] = NIH-3T3 expressing BRET sensor, 20 µM, 3 h
# [9] = HT-29, 24 h, 20 µM, 24 h, read-out: Percentage of cell death % 24h HT-29
# [10] = HT-29, 48 h, HT-29, 48h, 20 μM, read-out: Percentage of cell death % 48h, HT-29
"inhibition [3, 7] [%]","inhibition at 20 µM [3, 8] [%]",Compound,"Percentage of cell death % 48h, NIH3T3 [4] [%]",%Cell death HT-29 ([5]; HT-29) [%],"cytotoxicity at 20 µM ([4]; 20 µM, 24 h) [%]","cytotoxicity at 20 µM [5, 9] [%]","cytotoxicity at 20 µM [5, 10] [%]",Percentage of cell death % 24h CACO-2 [6] [%],"Percentage of cell death % 48h, Caco-2 [6] [%]",further results
–,–,"CCCCCCOC(=O)c1ccc(Nc2c([N+](=O)[O-])cc(C(=O)O)cc2[N+](=O)[O-])cc1 [BV01, 4-((4-((hexyloxy)carbonyl)phenyl)amino)-3,5-dinitrobenzoic acid]",–,–,–,–,–,–,–,"Bmax ([Signal (RU)]) ([1]; SPR curve at 0.005 mM ligand): 100.98 RU; Bmax ([Signal (RU)]) ([1]; SPR curve at 0.007 mM ligand): 147.7 RU; Bmax ([Signal (RU)]) ([1]; SPR curve at 0.03 mM ligand): 198.6 RU; Bmax ([Signal (RU)]) ([1]; SPR curve at 0.05 mM ligand): 257.38 RU; Bmax ([Signal (RU)]) ([1]; SPR curve at 0.07 mM ligand): 320.07 RU; kd ([1]; SPR dissociation rate, value repeated per curve): 0.0112 s⁻¹; BI ([Signal (RU)]) ([1]; SPR fit parameter, per curve): 0.1 RU; pKd ([1]; SPR, immobilized His-14-3-3ζ, single-cycle kinetics, 1% DMSO): 5.20; kon ([1]; pH 7.8, read-out: ka): 1770 M⁻¹ s⁻¹; Binding by ITC [2]: weak sign of binding"
–,–,C[C@H]1O[C@@H](O[C@H]2CC[C@@]3(C)[C@@H](CC[C@]4(C)[C@@H]3C=C[C@]35OC[C@@]6(CCC(C)(C)C[C@H]63)[C@@H](O)C[C@]54C)[C@]2(C)CO)[C@H](O)[C@@H](O[C@@H]2O[C@H](CO)[C@@H](O)[C@H](O)[C@H]2O)[C@H]1O [Saikosaponin A],80.787,87.6,–,–,–,–,–,"inhibition at 20 µM [3]: 53.8%; BRET reduction on NIH-3T3 [3, 7]: 53.7827; cytotoxicity at 20 µM [4]: 80.7%; cytotoxicity at 20 µM ([5]; HT-29, 24 h, read-out: Percentage of cell death % 24h HT-29): 93.8%; cytotoxicity at 20 µM ([5]; HT-29, 48 h, read-out: Percentage of cell death % 48h, HT-29): 87.6%; %Cell death Caco-2 [6]: 1.2%"
42.6,42.6,COc1ccc2c(O[C@@H]3C[C@H]4C(=O)N[C@]5(C(=O)NS(=O)(=O)C6CC6)C[C@H]5/C=C\CCCCN(C)C(=O)[C@@H]4C3)cc(-c3nc(C(C)C)cs3)nc2c1C [Simeprevir],93.5636,70.9,19.3,38.8,70.9,3.948,5.542,"%Cell death Caco-2 ([6]; time not given, text says 48 h): 5.5%"
25.6,25.6,CCCSc1nc(N[C@@H]2C[C@H]2c2ccc(F)c(F)c2)c2nnn([C@@H]3C[C@H](OCCO)[C@@H](O)[C@H]3O)c2n1 [Ticagrelor],5.069,–,13.7,1.2,3.67,3.005,3.049,–
